For orientation: pIC50 means the IC50 on a negative log10 scale, so that one unit is a factor of ten.

pIC50: −log10 of the molar value.

Our source for the IC50 values is patent EP2951180B1, “2,6,7,8 SUBSTITUTED PURINES AS HDM2 INHIBITORS” (Merck Sharp & Dohme Corp., priority 2013, dated 2014).

T1 sequence (Q00987 17-125): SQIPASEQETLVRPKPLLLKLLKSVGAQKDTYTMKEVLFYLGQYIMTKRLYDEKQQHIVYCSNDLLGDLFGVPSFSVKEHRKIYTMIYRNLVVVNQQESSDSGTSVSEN

This test concerns the target T1, HDM2 (Homo sapiens, UniProt Q00987).
T1 construct: Thioredoxin (N); made in house; host or cells: E. coli strain BL21(DE3)Rosetta
Description: HDM2 FRET assay (inhibition of binding of FITC labeled p53-pocket peptide to HDM2). Particulars: 0.5 nM HDM2 (residues 17 to 125), 3nM peptide, two hour incubation at room temperature; read-out: FRET IC50. The gist of the method: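 TR-FRET with 0.5 nM His-tagged recombinant HDM2, 3 nM FITC-labelled p53 peptide and 0.25 nM Tb-anti-His antibody in PBS, 0.01% BSA, 0.01% Tween-20, 0.1% DMSO. IC50 from em520/em495 ratio over 10-point dilutions, 4-parameter logistic fit.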
On to `C[C@@H](Nc1nc(S(C)(=O)=O)nc2nc(N3CCOC[C@H]3c3ccccc3)n(C[C@H]3CC[C@H](C)CC3)c12)C1CCC1` [Example 14.1, N-((R)-1-cyclobutylethyl)-7-((trans-4-methylcyclohexyl)methyl)-2-(methylsulfonyl)-8-((R)-3-phenylmorpholino)-7H-purin-6-amine], for which the pIC50 was 7.63.
Then `CC(C)c1ccnc(-c2nc3nc(S(C)(=O)=O)nc(N[C@H](C)C4CCC4)c3n2C[C@H]2CC[C@H](C)CC2)c1` [Example 14.4, N-[(1R)-1-cyclobutylethyl]-7-[(trans-4-methylcyclohexyl)methyl]-8-[4-(1-methylethyl)pyridin-2-yl]-2-(methylsulfonyl)-7H-purin-6-amine], with 7.14; and `CCS(=O)(=O)c1nc(N[C@H](C)C2CCC2)c2c(n1)nc(N1CCOC[C@H]1c1ccccc1)n2C[C@H]1CC[C@H](C)CC1` [Example 14.5, N-[(1R)-1-cyclobutylethyl]-2-(ethylsulfonyl)-7-[(trans-4-methylcyclohexyl)methyl]-8-[(3R)-3-phenylmorpholin-4-yl]-7H-purin-6-amine], with 7.70.
For `CC(C)S(=O)(=O)c1nc(N[C@H](C)C2CCC2)c2c(n1)nc(N1CCOC[C@H]1c1ccccc1)n2C[C@H]1CC[C@H](C)CC1` [Example 14.6, N-[(1R)-1-cyclobutylethyl]-7-[(trans-4-methylcyclohexyl)methyl]-2-[(1-methylethyl)sulfonyl]-8-[(3R)-3-phenylmorpholin-4-yl]-7H-purin-6-amine], the pIC50 was 7.68.
The value for `CC[S+]([O-])c1nc(N[C@H](C)C2CCC2)c2c(n1)nc(N1CCOC[C@H]1c1ccccc1)n2C[C@H]1CC[C@H](C)CC1` (stereo partly drawn) [Example 14.7, N-[(1R)-1-cyclobutylethyl]-2-(ethylsulfinyl)-7-[(trans-4-methylcyclohexyl)methyl]-8-[(3R)-3-phenylmorpholin-4-yl]-7H-purin-6-amine] was 7.91; that for `CC(C)[S+]([O-])c1nc(N[C@H](C)C2CCC2)c2c(n1)nc(N1CCOC[C@H]1c1ccccc1)n2C[C@H]1CC[C@H](C)CC1` (stereo partly drawn) [Example 14.8, N-[(1R)-1-cyclobutylethyl]-7-[(trans-4-methylcyclohexyl)methyl]-2-[(1-methylethyl)sulfinyl]-8-[(3R)-3-phenylmorpholin-4-yl]-7H-purin-6-amine] was 7.81.
With `C[C@@H](Nc1nc(S(=O)(=O)CC(F)(F)F)nc2nc(N3CCOC[C@H]3c3ccccc3)n(C[C@H]3CC[C@H](C)CC3)c12)C1CCC1` [Example 14.15, N-[(1R)-1-cyclobutylethyl]-7-[(trans-4-methylcyclohexyl)methyl]-8-[(3R)-3-phenylmorpholin-4-yl]-2-[(2,2,2-trifluoroethyl)sulfonyl]-7H-purin-6-amine], the pIC50 is 6.66.
On to `C[C@@H](Nc1nc(S(=O)(=O)CCO)nc2nc(N3CCOC[C@H]3c3ccccc3)n(C[C@H]3CC[C@H](C)CC3)c12)C1CCC1` [Example 14.18, 2-[(6-{[(1R)-1-cyclobutylethyl]amino} -7-[(trans-4-methylcyclohexyl)methyl]-8-[(3R)-3-phenylmorpholin-4-yl]-7H-purin-2-yl)sulfonyl]ethanol], for which the pIC50 is 8.16.
As for `CC(C)c1ccnc(-c2nc3nc(C(=O)O)nc(N[C@H](C)C4CCC4)c3n2C[C@H]2CC[C@H](C)CC2)c1` [Example 15.1, 6-(((R)-1-cyclobutylethyl)amino)-8-(4-isopropylpyridin-2-yl)-7-((trans-4-methylcyclohexyl)methyl)-7H-purine-2-carboxylic acid], the pIC50 is 8.89.
Then `CC(C)c1ccnc(-c2nc3nc(C(=O)O)nc(N(C)[C@H](C)C4CCC4)c3n2C[C@H]2CC[C@H](C)CC2)c1` [Example 15.2, 6-(((R)-1-cyclobutylethyl)(methyl)amino)-8-(4-isopropylpyridin-2-yl)-7-((trans-4-methylcyclohexyl)methyl)-7H-purine-2-carboxylic acid], with 7.98; and `CC(C)c1cc(-c2nc3nc(C(=O)O)nc(N[C@H](C)C4CCC4)c3n2C[C@H]2CC[C@H](C)CC2)[nH]c(=O)c1` [Example 15.3, 6-(((R)-1-cyclobutylethyl)amino)-8-(4-isopropyl-6-oxo-1,6-dihydropyridin-2-yl)-7-((trans-4-methylcyclohexyl)methyl)-7H-purine-2-carboxylic acid], with 7.81.
The value for `CCOc1cc(C(C)C)cc(-c2nc3nc(C(=O)O)nc(N[C@H](C)C4CCC4)c3n2C[C@H]2CC[C@H](C)CC2)n1` [Example 15.4, 6-(((R)-1-cyclobutylethyl)amino)-8-(6-ethoxy-4-isopropylpyridin-2-yl)-7-((trans-4-methylcyclohexyl)methyl)-7H-purine-2-carboxylic acid] was 8.35.
Then `CC(C)c1cc(F)nc(-c2nc3nc(-c4noc(=O)[nH]4)nc(N[C@H](C)C4CCC4)c3n2C[C@H]2CC[C@H](C)CC2)c1` [Example 15.5, 3-(6-(((R)-1-cyclobutylethyl)amino)-8-(6-fluoro-4-isopropylpyridin-2-yl)-7-((trans-4-methylcyclohexyl)methyl)-7H-purin-2-yl)-1,2,4-oxadiazol-5(2H)-one], with 7.48; and `CC(C)c1ccnc(-c2nc3nc(C(=O)O)nc(N[C@H](C)C4CCC4)c3n2C[C@H]2CC[C@H](C)CC2)c1F` [Example 15.6, 6-(((R)-1-Cyclobutylethyl)amino)-8-(3-fluoro-4-isopropylpyridin-2-yl)-7-((trans-4-methylcyclohexyl)methyl)-7H-purine-2-carboxylic acid], with 8.22; and `CC(C)c1ccnc(-c2nc3nc(-c4noc(=O)[nH]4)nc(N[C@H](C)C4CCC4)c3n2C[C@H]2CC[C@H](C)CC2)c1F` [Example 15.7, 3-(6-((R)-1-cyclobutylethylamino)-8-(3-fluoro-4-isopropylpyridin-2-yl)-7-((trans-4-methylcyclohexyl)methyl)-7H-purin-2-yl)-1,2,4-oxadiazol-5(4H)-one], with 8.29.
With `CC(C)c1cc(-c2nc3nc(C(=O)O)nc(N[C@H](C)C4CCC4)c3n2C[C@H]2CC[C@H](C)CC2)ncc1F` [Example 15.8, 6-(((R)-1-cyclobutylethyl)amino)-8-(5-fluoro-4-isopropylpyridin-2-yl)-7-((trans-4-methylcyclohexyl)methyl)-7H-purine-2-carboxylic acid], the pIC50 is 8.94.
Take `C[C@@H](Nc1nc(-c2noc(=O)[nH]2)nc2nc(-c3cc(C(C)(C)O)c(F)cn3)n(C[C@H]3CC[C@H](C)CC3)c12)C1CCC1` [Example 15.9, 3-(6-(((R)-1-cyclobutylethyl)amino)-8-(5-fluoro-4-(2-hydroxypropan-2-yl)pyridin-2-yl)-7-((trans-4-methylcyclohexyl)methyl)-7H-purin-2-yl)-1,2,4-oxadiazol-5(4H)-one]: the pIC50 was 8.40.
`CC(C)c1cc(-c2nc3nc(-c4noc(=O)[nH]4)nc(N[C@H](C)C4CCC4)c3n2C[C@H]2CC[C@H](C)CC2)ncc1F` [Example 15.10, 3-(6-(((R)-1-cyclobutylethyl)amino)-8-(5-fluoro-4-isopropylpyridin-2-yl)-7-((trans-4-methylcyclohexyl)methyl)-7H-purin-2-yl)-1,2,4-oxadiazol-5(4H)-one]: the pIC50 is 7.93.
Then `C[C@@H](Nc1nc(C(=O)O)nc2nc(-c3nccs3)n(C[C@H]3CC[C@H](C)CC3)c12)C1CCC1` [Example 15.11, 6-(((R)-1-cyclobutylethyl)amino)-7-((trans-4-methylcyclohexyl)methyl)-8-(thiazol-2-yl)-7H-purine-2-carboxylic acid], with 8.61; and `C[C@@H](Nc1nc(-c2noc(=O)[nH]2)nc2nc(-c3nccs3)n(C[C@H]3CC[C@H](C)CC3)c12)C1CCC1` [Example 15.12, 3-(6-(((R)-1-cyclobutylethyl)amino)-7-((trans-4-methylcyclohexyl)methyl)-8-(thiazol-2-yl)-7H-purin-2-yl)-1,2,4-oxadiazol-5(4H)-one], with 8.20.
In the case of `COc1ccc(C)cc1-c1nc2nc(C(=O)O)nc(N[C@H](C)C3CCC3)c2n1C[C@H]1CC[C@H](C)CC1` [Example 15.13, 6-{[(1R)-1-cyclobutylethyl]amino}-8-(2-methoxy-5-methylphenyl)-7-[(trans-4-methylcyclohexyl)methyl]-7H-purine-2-carboxylic acid], the pIC50 was 8.30.
As to `Cc1cccc(-c2nc3nc(C(=O)O)nc(N[C@H](C)C4CCC4)c3n2C[C@H]2CC[C@H](C)CC2)c1` [Example 15.14, 6-{[(1R)-1-cyclobutylethyl]amino}-7-[(trans-4-methylcyclohexyl)methyl]-8-(3-methylphenyl)-7H-purine-2-carboxylic acid], the pIC50 is 8.54.
With `CC(C)c1ccnc(-c2nc3nc(C(=O)O)nc(N[C@H](C)C4CCC4)c3n2C[C@H]2CC[C@H](C)CC2)c1` [Example 15.15, 6-{[(1R)-1-cyclobutylethyl]amino}-7-[(trans-4-methylcyclohexyl)methyl]-8-[4-(1-methylethyl)pyridin-2-yl]-7H-purine-2-carboxylic acid], the pIC50 is 8.59.
Turning to `C[C@@H](Nc1nc(C(=O)O)nc2nc(-c3cc(C(C)(C)C)ccn3)n(C[C@H]3CC[C@H](C)CC3)c12)C1CCC1` [Example 15.16, 8-(4-tert-butylpyridin-2-yl)-6-{[(1R)-1-cyclobutylethyl]amino}-7-[(trans-4-methylcyclohexyl)methyl]-7H-purine-2-carboxylic acid], the pIC50 is 8.98.
The value for `C[C@@H](Nc1nc(C(=O)O)nc2nc(-c3cc(C4CC4)ccn3)n(C[C@H]3CC[C@H](C)CC3)c12)C1CCC1` [Example 15.17, 6-{[(1R)-1-cyclobutylethyl]amino}-8-(4-cyclopropylpyridin-2-yl)-7-[(trans-4-methylcyclohexyl)methyl]-7H-purine-2-carboxylic acid] was 8.68.
